For data set [1], the system named is H1975 cells. The data set is described as follows: Cell survival with LV-scFvCD24 and INr2 peptide, Example 3. Type of data set: cell-based, human. The settings on record: with peptide and LV-scFvCD24 particles. As to the method:
The expression of CD24 in H1975 cells was evaluated by Flow cytometry. Briefly, approximately 1×10^6 cells were used in each experiment. Fluorescein isothiocyanate (FITC)—labeled humanized anti-human CD24 antibodies were used. Detection of bound antibodies was performed on a Cube6 and results were analyzed with the FCS express program. The lentivirus used was anti-CD24 scFv in an MOI of 30. The LentiBoost™ concentration used was 1:100 buffer A+1:100 buffer B (+spinoculation). The INr2 peptide was used in a concentration of 30 μM. FIG. 3A depicts the fluorescence (count) of the tested cells (Left—negative control, only secondary antibody; Right—duplicates of cells expressing CD24 after first and second-FITC antibodies). […] FIG. 3C is a schematic illustration of the of the experiment timeline. […] Particles were added on days 1, 4 and 7 as well.

The next data set relates to 1975 lung cancer cells. Nature of the data set: Cell survival, enzymatic MTT assay, Example 5. Type of data set: cell-based, human. The conditions noted are these: 1975 cells.
Data set [2] relates to BT549 breast cancer cells. Nature of the data set: Cell survival, enzymatic MTT assay, Example 5. Type of data set: cell-based, human. A general note: Formazan colour is commonly taken as a measure of viable cells.
The subject of data set [3] is H1975 cells. Nature of the data set: Cell survival, enzymatic MTT assay, Example 2. The conditions noted are these: with INS peptide and LV-scFvCD24 particles.
Experimental: Cell line “H1975” cells were seeded in 96-well plates (2000 cells/well). […] Particles were added on day 2.
For data set [4] the following is noted: cited from earlier work.
The target of another data set is IN-Rev interaction (Human immunodeficiency virus type 1 group M subtype B, UniProt P04618). The conditions noted are these: cited from earlier work.
Sequence of IN-Rev interaction (P04618 whole entry, looked up): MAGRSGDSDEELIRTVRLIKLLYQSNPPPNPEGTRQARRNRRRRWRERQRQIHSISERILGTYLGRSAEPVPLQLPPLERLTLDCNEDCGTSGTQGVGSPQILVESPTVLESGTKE
The next data set has as its system HIV-1. The conditions noted are these: cited from earlier work.
In the next data set the target is T1, HIV-1 integrase (Human immunodeficiency virus type 1 group M subtype B, UniProt P12497).
T1 construct: purchased
The data set is described as follows: Integrase activity in test tubes (HIV-1 integrase assay kit). Type of data set: biochemical. As for the experimental part: The ability of INS to increase the activity of HIV-1 integrase was tested using the HIV-1 integrase assay kit.

A further data set has as its target viral Integrase enzyme (Human immunodeficiency virus type 1 group M subtype B, UniProt P12497). Nature of the data set: Integrase stimulation in viral infected cells, Example 4. Format: cell-based. As for the experimental part: (§1) Integrase derived peptides (designated as INS) were synthesized as well as control peptide. Humanized Anti-CD24 antibody fragment (scFv) was engineered and fused to the lentivirus envelope. Cell death was measured qualitatively by using fluorescent microscopy and was quantified by the enzymatic MTT assay. Human colorectal cells (DLD1, colorectal adenocarcinoma, FIG. 4A) and breast cancer cells (MCF7, Human breast adenocarcinoma, FIG. 4B) were used for testing the potency of the lentiviral-based system.

The test system of data set [5] is DLD1, colorectal adenocarcinoma. The data set is described as follows: Cell death of lentivirus-infected cells, fluorescent microscopy and MTT assay, Example 4. Format: cell-based, human. The settings on record: DLD1 infected with CD24-targeted lentivirus; compared to the control peptide. As to the method: as §1
Data set [6] deals with MCF7, Human breast adenocarcinoma. The description is as above. Format: cell-based. The conditions noted are these: MCF7 infected with CD24-targeted lentivirus; compared to the control peptide. As to the method: as §1
Another data set addresses T2, IN (Human immunodeficiency virus type 1 group M subtype B, UniProt P12497).
T2 construct: Stimulation of the HIV-1 Integrase Enzymatic Activity and cDNA Integration by a Peptide Derived from the Integrase Protein
The conditions noted are these: listed as INS; cited from earlier work.

Entries after “also recorded” stand apart in the source; their conditions may differ.

Here are results for 4 compounds from patent US20200171159A1, “SELECTIVE DESTRUCTION OF CELLS” (priority 2017, published 2020).

Regarding `Cc1nnc(C(=O)NC(C)(C)c2nc(C(=O)NCc3ccc(F)cc3)c(O)c(=O)n2C)o1` [Raltegravir], the “effect of Raltegravir on the decrease in survival” value (in the data set on H1975 cells [1]; with 1975 lung cancer cells; in data set [2]; with H1975 cells [3]) was “ameliorated” each time.
As for WGSNFTSTTVKA [INr2], the cell permeability entry in [4] is listed as “cell-permeable”. Further, the IN-Rev interaction result at IN-Rev interaction is on record as “abrogated”. The virus infectivity entry in the data set on HIV-1 is given as “stimulated virus infectivity”.
Consider WTAVQMAVFIHNFKRK [INS peptide], for which the “stimulation of the viral Integrase enzyme” value on HIV-1 integrase and on viral Integrase enzyme was “able to stimulate” each time. For the same compound, the cell death result in [5] and in [6] was “Massive cell death” throughout. The cell permeability entry in [4] is reported as “cell-permeable”. Besides, the IN-Rev interaction result at IN-Rev interaction is “abrogated”. In addition, at IN, the “direct effect on IN activity” value is given as “directly activates the free IN; also recorded: direct stimulatory effect”. The virus infectivity result with HIV-1 is on record as “stimulated virus infectivity”.
Regarding WTHLEGKIILVAVHVA [INr1], the cell permeability result in data set [4] is on record as “cell-permeable”. Moreover, the IN-Rev interaction result on IN-Rev interaction is listed as “abrogated”. Further, the virus infectivity entry with HIV-1 is on record as “stimulated virus infectivity”.
